Assay results as given in ChEMBL document CHEMBL3877319, “Synthesis of Ofornine mimics from natural product l-vasicine as anti-hypertensive agents” (Bioorg Med Chem, 2017).

Tests used:
Rattus norvegicus [1] = assay: Anti-hypertensive activity in Wistar rat assessed as diastolic blood pressure at 10 mg/kg, iv after 15 mins (reference value: 77.15 to 94.4 mmHg); format: functional
Mus musculus [2] = assay: Acute toxicity in Swiss mouse assessed as ALT level in serum up to 2000 mg/kg, po measured on day 14 post dose (reference value: 49.87 +/- 3.277 IU/L); format: organism-based; details: in vivo
Mus musculus [3] = assay: Acute toxicity in Swiss mouse assessed as effect on feed up to 2000 mg/kg, po measured up to 13 days post dose; format: organism-based; details: in vivo, 312 h
Rattus norvegicus [4] = assay: Anti-hypertensive activity in Wistar rat assessed as diastolic blood pressure at 10 mg/kg, iv after 5 mins (reference value: 77.15 to 94.4 mmHg); format: functional
Mus musculus [5] = assay: Acute toxicity in Swiss mouse assessed as monocytes level up to 2000 mg/kg, po measured on day 14 post dose (reference value: 3.66%); format: organism-based; details: in vivo
Mus musculus [6] = assay: Acute toxicity in Swiss mouse assessed as serum glucose level up to 2000 mg/kg, po measured on day 14 post dose (reference value: 105.78 +/- 5.217 mg/dl); format: organism-based; details: in vivo
Mus musculus [7] = assay: Acute toxicity in Swiss mouse assessed as mean corpuscular hemoglobin up to 2000 mg/kg, po measured on day 14 post dose (reference value: 13.78 +/- 5.29 pg); format: organism-based; details: in vivo
Mus musculus [8] = assay: Acute toxicity in Swiss mouse assessed as hemoglobin level up to 2000 mg/kg, po measured on day 14 post dose (reference value: 12.342 +/- 4.42 g/dl); format: organism-based; details: in vivo
Mus musculus [9] = assay: Acute toxicity in Swiss mouse assessed as total protein level in serum up to 2000 mg/kg, po measured on day 14 post dose (reference value: 4.844 +/- 0.222 g/dl); format: organism-based; details: in vivo
Rattus norvegicus [10] = assay: Anti-hypertensive activity in iv dosed Wistar rat assessed as decrease in blood pressure up to 180 mins; format: functional, organism-based
Mus musculus [11] = assay: Acute toxicity in Swiss mouse assessed as WBC count up to 2000 mg/kg, po measured on day 14 post dose (reference value: 8.35 +/- 4.53 10^3/microL); format: organism-based; details: in vivo
Mus musculus [12] = assay: Acute toxicity in Swiss mouse assessed as serum urea level up to 2000 mg/kg, po measured on day 14 post dose (reference value: 55.157 +/- 2.769 mg/dl); format: organism-based; details: in vivo
Mus musculus [13] = assay: Acute toxicity in Swiss mouse assessed as platelet level up to 2000 mg/kg, po measured on day 14 post dose (reference value: 1542.71 +/- 474.34 10^3/microL); format: organism-based; details: in vivo
Mus musculus [14] = assay: Acute toxicity in Swiss mouse assessed as change in general appearance up to 2000 mg/kg, po measured up to 13 days post dose; format: organism-based; details: in vivo, 312 h
Mus musculus [15] = assay: Acute toxicity in Swiss mouse assessed as change in body weight up to 2000 mg/kg, po measured once in a week up to 13 days post dose; format: organism-based; details: in vivo, 312 h
Mus musculus [16] = assay: Acute toxicity in Swiss mouse assessed as neutrophil level up to 2000 mg/kg, po measured on day 14 post dose (reference value: 14.56%); format: organism-based; details: in vivo
Mus musculus [17] = assay: Acute toxicity in Swiss mouse assessed as basophil level up to 2000 mg/kg, po measured on day 14 post dose (reference value: 0.1%); format: organism-based; details: in vivo
Mus musculus [18] = assay: Acute toxicity in Swiss mouse assessed as RBC count up to 2000 mg/kg, po measured on day 14 post dose (reference value: 8.97 +/- 3.15 10^6/microL); format: organism-based; details: in vivo
Mus musculus [19] = assay: Acute toxicity in Swiss mouse assessed as mortality up to 2000 mg/kg, po measured up to 13 days post dose; format: organism-based; details: in vivo, 312 h
Rattus norvegicus [20] = assay: Anti-hypertensive activity in Wistar rat assessed as diastolic blood pressure at 10 mg/kg, iv after 150 mins (reference value: 77.15 to 94.4 mmHg); format: functional
Rattus norvegicus [21] = assay: Anti-hypertensive activity in Wistar rat assessed as diastolic blood pressure at 10 mg/kg, iv after 30 mins (reference value: 77.15 to 94.4 mmHg); format: functional
Rattus norvegicus [22] = assay: Anti-hypertensive activity in Wistar rat assessed as systolic blood pressure at 10 mg/kg, iv after 60 mins (reference value: 110 to 124.6 mmHg); format: functional
Mus musculus [23] = assay: Acute toxicity in Swiss mouse assessed as mean corpuscular volume up to 2000 mg/kg, po measured on day 14 post dose (reference value: 44.85 +/- 17.65 fL); format: organism-based; details: in vivo
Mus musculus [24] = assay: Acute toxicity in Swiss mouse assessed as effect on water consumption up to 2000 mg/kg, po measured up to 13 days post dose; format: organism-based; details: in vivo, 312 h
Rattus norvegicus [25] = assay: Anti-hypertensive activity in Wistar rat assessed as systolic blood pressure at 10 mg/kg, iv after 120 mins (reference value: 110 to 124.6 mmHg); format: functional
Mus musculus [26] = assay: Acute toxicity in Swiss mouse assessed as lymphocytes level up to 2000 mg/kg, po measured on day 14 post dose (reference value: 79.433%); format: organism-based; details: in vivo
Rattus norvegicus [27] = assay: Anti-hypertensive activity in Wistar rat assessed as systolic blood pressure at 10 mg/kg, iv after 150 mins (reference value: 110 to 124.6 mmHg); format: functional
Mus musculus [28] = assay: Acute toxicity in Swiss mouse assessed as uric acid level in serum up to 2000 mg/kg, po measured on day 14 post dose (reference value: […]); format: organism-based; details: in vivo
Mus musculus [29] = assay: Acute toxicity in Swiss mouse assessed as serum creatinine level up to 2000 mg/kg, po measured on day 14 post dose (reference value: 0.418 +/- 0.0259 mg/dl); format: organism-based; details: in vivo
Rattus norvegicus [30] = assay: Anti-hypertensive activity in Wistar rat assessed as systolic blood pressure at 10 mg/kg, iv after 30 mins (reference value: 110 to 124.6 mmHg); format: functional
Rattus norvegicus [31] = assay: Anti-hypertensive activity in Wistar rat assessed as diastolic blood pressure at 10 mg/kg, iv after 180 mins (reference value: 77.15 to 94.4 mmHg); format: functional
Mus musculus [32] = assay: Acute toxicity in Swiss mouse assessed as eosinophil level up to 2000 mg/kg, po measured on day 14 post dose (reference value: 2.233%); format: organism-based; details: in vivo
Rattus norvegicus [33] = assay: Anti-hypertensive activity in Wistar rat assessed as systolic blood pressure at 10 mg/kg, iv after 5 mins (reference value: 110 to 124.6 mmHg); format: functional
Rattus norvegicus [34] = assay: Anti-hypertensive activity in Wistar rat assessed as diastolic blood pressure at 10 mg/kg, iv after 120 mins (reference value: 77.15 to 94.4 mmHg); format: functional
Mus musculus [35] = assay: Acute toxicity in Swiss mouse assessed as AST level in serum up to 2000 mg/kg, po measured on day 14 post dose (reference value: 162.53 +/- 5.455 IU/L); format: organism-based; details: in vivo
Rattus norvegicus [36] = assay: Anti-hypertensive activity in Wistar rat assessed as systolic blood pressure at 10 mg/kg, iv after 15 mins (reference value: 110 to 124.6 mmHg); format: functional
Mus musculus [37] = assay: Acute toxicity in Swiss mouse assessed as cholesterol level in serum up to 2000 mg/kg, po measured on day 14 post dose (reference value: […]); format: organism-based; details: in vivo
Mus musculus [38] = assay: Acute toxicity in Swiss mouse assessed as serum triglyceride level up to 2000 mg/kg, po measured on day 14 post dose (reference value: […]); format: organism-based; details: in vivo
Mus musculus [39] = assay: Acute toxicity in Swiss mouse assessed as hematocrit up to 2000 mg/kg, po measured on day 14 post dose (reference value: 40.114 +/- 14.74%); format: organism-based; details: in vivo
Rattus norvegicus [40] = assay: Anti-hypertensive activity in Wistar rat assessed as diastolic blood pressure at 10 mg/kg, iv after 60 mins (reference value: 77.15 to 94.4 mmHg); format: functional
Rattus norvegicus [41] = assay: Anti-hypertensive activity in Wistar rat assessed as systolic blood pressure at 10 mg/kg, iv after 180 mins (reference value: 110 to 124.6 mmHg); format: functional

O=C(c1ccccc1Nc1ccncc1)N1CC[C@H](O)C1
Activity (Rattus norvegicus [1]): 64.33 mmHg | Activity (Mus musculus [2]): 50.587 IU/L | Activity (Mus musculus [3]): Non-Toxic | Activity (Rattus norvegicus [4]): 66.01 mmHg | Activity (Mus musculus [5]): 3.128% | Activity (Mus musculus [6]): 111.51 mg/dL | Activity (Mus musculus [7]): 13.77 pg | Activity (Mus musculus [8]): 13.342 g/dL | Activity (Mus musculus [9]): 5.224 g/dL | Activity (Rattus norvegicus [10]): Dose-dependent effect | Activity (Mus musculus [11]): 10.185 ×10³ /uL | Activity (Mus musculus [12]): 54.885 mg/dL | Activity (Mus musculus [13]): 1458.42 ×10³ /uL | Activity (Mus musculus [14]): Non-Toxic | Activity (Mus musculus [15]): Non-Toxic | Activity (Mus musculus [16]): 8.828% | Activity (Mus musculus [17]): 0.0714% | Activity (Mus musculus [18]): 9.684 ×10⁶ /uL | Activity (Mus musculus [19]): Non-Toxic | Activity (Rattus norvegicus [20]): 73 mmHg | Activity (Rattus norvegicus [21]): 62.55 mmHg | Activity (Rattus norvegicus [22]): 79.29 mmHg | Activity (Mus musculus [23]): 41.3 fL | Activity (Mus musculus [24]): Non-Toxic | Activity (Rattus norvegicus [25]): 85.46 mmHg | Activity (Mus musculus [26]): 84.514% | Activity (Rattus norvegicus [27]): 87.13 mmHg | Activity (Mus musculus [28]): 2.81 mg/dL | Activity (Mus musculus [29]): 0.435 mg/dL | Activity (Rattus norvegicus [30]): 80.19 mmHg | Activity (Rattus norvegicus [31]): 79.06 mmHg | Activity (Mus musculus [32]): 3.457% | Activity (Rattus norvegicus [33]): 88 mmHg | Activity (Rattus norvegicus [34]): 69.81 mmHg | Activity (Mus musculus [35]): 145.84 IU/L | Activity (Rattus norvegicus [36]): 82.41 mmHg | Activity (Mus musculus [37]): 83 mg/dL | Activity (Mus musculus [38]): 89.6 mg/dL | Activity (Mus musculus [39]): 40.1% | Activity (Rattus norvegicus [40]): 64.09 mmHg | Activity (Rattus norvegicus [41]): 108.8 mmHg
